The results in this text go back to ChEMBL document CHEMBL5244218, “Quinolone derivatives and their activities against methicillin-resistant Staphylococcus aureus (MRSA)” (Eur J Med Chem, 2018).

≈ marks a conversion by molar mass, not a printed value.

Data set [1] relates to Staphylococcus aureus. The experiment in a line: Antimicrobial activity against methicillin-resistant Staphylococcus aureus by agar dilution method. The class given is functional. Background: In agar dilution the substance is mixed into plates at graded concentrations.
In data set [2] the test system is Staphylococcus aureus. The data set can be described thus: Antibacterial activity against methicillin-resistant Staphylococcus aureus isolates by two fold dilution method. The data set is classed as functional.
The test system of data set [3] is Staphylococcus aureus. The data set can be described thus: Antimicrobial activity against methicillin-resistant Staphylococcus aureus. The data set is classed as functional, organism-based.
The test system of data set [4] is Staphylococcus aureus. The data set can be described thus: Potency index, ratio of norfloxacin MIC to test compound MIC for antimicrobial activity against methicillin-resistant Staphylococcus aureus. The data set is classed as functional.
Data set [5] relates to Staphylococcus aureus. The experiment in a line: Antimicrobial activity against methicillin-resistant Staphylococcus aureus clinical isolate 1 measured after 18 hrs by agar dilution method. The data set is classed as functional.
Data set [6] deals with Staphylococcus aureus. The data set can be described thus: Antimicrobial activity against methicillin-resistant Staphylococcus aureus clinical isolate 2 measured after 18 hrs by agar dilution method. The class given is functional.
Data set [7] deals with Staphylococcus aureus. The experiment in a line: Potency index, ratio of norfloxacin MIC to test compound MIC for antimicrobial activity against methicillin-resistant Staphylococcus aureus clinical isolate 1. The data set is classed as functional.
The subject of data set [8] is Staphylococcus aureus. The data set can be described thus: Potency index, ratio of norfloxacin MIC to test compound MIC for antimicrobial activity against methicillin-resistant Staphylococcus aureus clinical isolate 2. The class given is functional.
For data set [9], the system named is Staphylococcus aureus. The data set can be described thus: Potency index, ratio of ciprofloxacin MIC to test compound MIC for antimicrobial activity against methicillin-resistant Staphylococcus aureus clinical isolate 1. The class given is functional.
The subject of data set [10] is Staphylococcus aureus. The experiment in a line: Potency index, ratio of ciprofloxacin MIC to test compound MIC for antimicrobial activity against methicillin-resistant Staphylococcus aureus clinical isolate 2. The class given is functional.
Data set [11] has as its system Staphylococcus aureus. The data set can be described thus: Antibacterial activity against methicillin-resistant Staphylococcus aureus. The data set is classed as functional.
Data set [12] is described as follows: Cytotoxicity against human HEK293 cells incubated for 72 hrs by MTT assay. The data set is classed as toxicity, cell-based. On the technique in general: Tetrazolium dyes change colour on reduction, which living cells bring about.
In data set [13] the test system is Staphylococcus aureus. The data set can be described thus: Antimicrobial activity against methicillin-resistant Staphylococcus aureus assessed as inhibition of microbial growth. The data set is classed as functional.
For data set [14], the system named is Staphylococcus aureus. The experiment in a line: Bactericidal activity against methicillin-resistant Staphylococcus aureus assessed as inhibition of microbial growth. The data set is classed as functional.
Data set [15] has as its system Staphylococcus aureus. The experiment in a line: Antimicrobial activity against methicillin-resistant Staphylococcus aureus incubated for 18 hrs by Alamar blue staining based analysis. The data set is classed as functional. (The colour change of resazurin is a common sign of viable cells or microbes.)
Data set [16] has as its system Staphylococcus aureus. The experiment in a line: Antimicrobial activity against methicillin-resistant Staphylococcus aureus incubated for 18 hrs by Agar dilution method. The data set is classed as functional.
Data set [17] deals with Staphylococcus aureus. The experiment in a line: Antimicrobial activity against methicillin-resistant Staphylococcus aureus isolates by agar dilution method. The class given is functional.

The term MIC denotes the lowest concentration that inhibits growth of the organism. In turn, `CNCC1(C)CN(c2nc3c(cc2F)c(=O)c(C(=O)O)cn3C2CC2)CC/C1=N\OC` (stereo not drawn) showed an MIC against Staphylococcus aureus [1] of 64 µg/mL (≈ 148 µM).
`CCNCC1CCN(c2c(F)cc3c(=O)c(C(=O)O)c4scc5n4c3c2NC5)C1` (stereo not drawn) yielded an MIC with Staphylococcus aureus [2] of 0.05 µg/mL (≈ 0.12 µM).
For `CCn1cc(C(=O)O)c(=O)c2cc(F)c(N3CCN(C/C(=N/O)c4ccc(OC)cc4)CC3)c(F)c21`, in the data set on Staphylococcus aureus [3], the MIC came out at 0.2 µM. The Ratio in the data set with Staphylococcus aureus [4] is on record as 24.
On to `O=C(O)c1cn(C2CC2)c2cc(N3CCN(C/C(=N/O)c4ccco4)CC3)c(F)cc2c1=O`, for which the MIC with Staphylococcus aureus [5] and with Staphylococcus aureus [6] was 0.19 µg/mL (≈ 0.418 µM) each time. The Ratio in the data set on Staphylococcus aureus [7] is recorded as 4; in the data set on Staphylococcus aureus [8], 4; in the data set on Staphylococcus aureus [9], 2; with Staphylococcus aureus [10], 2.
Take `O=C(O)c1cn(CC(O)Cn2cncn2)c2ccc(F)cc2c1=O` (stereo not drawn): the Ratio with Staphylococcus aureus [4] is listed as 8. This compound also came in with an MIC with Staphylococcus aureus [11] of 1 µg/mL (≈ 3.01 µM).
Consider `CCn1cc(C(=O)O)c(=O)c2cc(F)c(N3CCN(C)CC3)cc21` [PEFLOXACIN], for which the MIC against Staphylococcus aureus [2] stood at 1.56 µg/mL (≈ 4.68 µM).
Regarding `O=C(O)c1cn(C2CC2)c2cc(N3CCN(C/C(=N/O)c4cccs4)CC3)c(F)cc2c1=O`, the MIC with Staphylococcus aureus [5] and in the data set on Staphylococcus aureus [6] was 0.19 µg/mL (≈ 0.404 µM) each time. The Ratio in the data set with Staphylococcus aureus [7] is listed as 4; in the data set on Staphylococcus aureus [8], 4; in the data set with Staphylococcus aureus [9] it was 2; in the data set with Staphylococcus aureus [10] it was 2.
By EC50 is commonly meant the midpoint of the concentration-response curve. `O=C(O)c1cn(C2CC2)c2c(Cl)c(N3CCN(Cn4nc(-c5ccccc5O)n(-c5cc(Cl)cc(Cl)c5)c4=S)CC3)c(F)cc2c1=O`: the EC50 at 72 h in data set [12] was found to be 50.5 µM.
Compound `O=C(O)c1c(=O)c2cc(F)c(N3CCOCC3)c3c2n2c(csc12)CN3` registered an MIC in the data set on Staphylococcus aureus [2] of 0.05 µg/mL (≈ 0.133 µM).
Take `NO/N=C(/CN1CCN(c2cc3c(cc2F)c(=O)c(C(=O)O)cn3C2CC2)CC1)c1cccs1`: the MIC in the data set on Staphylococcus aureus [5] and in the data set with Staphylococcus aureus [6] was 0.19 µg/mL (≈ 0.391 µM) throughout. Moreover, the Ratio is on record as 4 in the data set on Staphylococcus aureus [7], 4 in the data set on Staphylococcus aureus [8], 2 in the data set with Staphylococcus aureus [9] and 2 in the data set on Staphylococcus aureus [10].
For orientation: MBC means the lowest tested concentration that kills the bacteria rather than only halting them. Regarding `CCn1cc(C(=O)O)c(=O)c2cc(F)c(N3CCNCC3)cc21` [NORFLOXACIN], the minimum inhibitory concentration (MIC) with Staphylococcus aureus [11] was 8 µg/mL (≈ 25.1 µM); against Staphylococcus aureus [5], 0.78 µg/mL (≈ 2.44 µM); against Staphylococcus aureus [6], 0.78 µg/mL (≈ 2.44 µM); in the data set on Staphylococcus aureus [13], below 0.016 µg/mL. The MBC in the data set on Staphylococcus aureus [14] was 4 µg/mL.
`O=C(O)c1cn(C2CC2)c2c(Cl)c(N3CCN(Cn4nc(-c5ccccc5O)n(Cc5ccc(F)cc5)c4=S)CC3)c(F)cc2c1=O`: a half-maximal effect in data set [12] (EC50 at 72 h) was put at 50.5 µM.
In the data set with Staphylococcus aureus [2], `CC1COc2c(N3CCN(C)CC3)c(F)cc3c(=O)c(C(=O)O)cn1c23` (stereo not drawn) [OFLOXACIN] registered an MIC of 1.56 µg/mL (≈ 4.32 µM).
For `C[C@H]1COc2c(N3CCN(C)CC3)c(F)cc3c(=O)c(C(=O)O)cn1c23.C[C@H]1COc2c(N3CCN(C)CC3)c(F)cc3c(=O)c(C(=O)O)cn1c23.O` [LEVOFLOXACIN], the MIC was found to be 16 µg/mL in the data set with Staphylococcus aureus [3]; 32 µg/mL against Staphylococcus aureus [15]; 0.06 µg/mL against Staphylococcus aureus [16]; 1.56 µg/mL against Staphylococcus aureus [2]; 0.5 µg/mL in the data set with Staphylococcus aureus [17].
For `CCO/N=C1\CCN(c2c(F)cc3c(=O)c(C(=O)O)cn(C4CC4)c3c2F)CC1(C)CNC` (stereo not drawn), the MIC in the data set with Staphylococcus aureus [1] stood at 64 µg/mL (≈ 138 µM).
`COc1ccc(Cn2c(-c3ccccc3O)nn(CN3CCN(c4c(F)cc5c(=O)c(C(=O)O)cn(C6CC6)c5c4Cl)CC3)c2=S)cc1` yielded a concentration giving a half-maximal response (EC50) at 72 h in data set [12] of 50.5 µM. This counts as double-digit micromolar.
Take `CC1CN(c2c(F)cc3c(=O)c(C(=O)O)c4scc5n4c3c2N(C)C5)CCN1C` (stereo not drawn): the MIC in the data set on Staphylococcus aureus [2] is 0.05 µg/mL (≈ 0.12 µM).
In the data set with Staphylococcus aureus [17], `CCOC(=O)c1ccc(NC2CN(c3c(F)cc4c(=O)c(C(=O)O)cn(C5CC5)c4c3F)C2)cc1` yielded an MIC of 0.016 µg/mL (≈ 0.0331 µM).
In the case of `O=C(O)c1cn(CC(O)Cn2cncn2)c2cc(C(F)(F)F)ccc2c1=O` (stereo not drawn), the Ratio in the data set on Staphylococcus aureus [4] worked out at 8. For the same compound, the MIC in the data set on Staphylococcus aureus [11] turned out to be 1 µg/mL (≈ 2.62 µM).
On the same counts, the results for `CCOC(=O)c1cn(CC(O)Cn2cncn2)c2c(Cl)cc(Cl)cc2c1=O` (stereo not drawn) are 8 and 1 µg/mL (≈ 2.43 µM).
`CCO/N=C1\CCN(c2nc3c(cc2F)c(=O)c(C(=O)O)cn3C2CC2)CC1(C)CNC` (stereo not drawn): the MIC against Staphylococcus aureus [1] is 64 µg/mL (≈ 144 µM).
